According to ChEMBL document CHEMBL5532682, “Recent advances of tryptanthrin and its derivatives as potential anticancer agents” (RSC Med Chem, 2024):

Key:
DU-145 = test: Growth inhibition of human DU-145 cells assessed as reduction in cell viability; assay type: functional
SW-620 = test: Growth inhibition of human SW620 cells assessed as reduction in cell viability; assay type: functional
NCI/ADR-RES [1] = test: Growth inhibition of human MCF7ADR cells assessed as reduction in cell viability; assay type: functional
M14 = test: Growth inhibition of human M14 cells assessed as reduction in cell viability; assay type: functional
SK-OV-3 = test: Growth inhibition of human SK-OV-3 cells assessed as reduction in cell viability; assay type: functional
HeLa [2] = test: Antiproliferative activity against human HeLa cells incubated for 48 hrs; assay type: functional, cell-based
CT26 = test: Antiproliferative activity against mouse CT26 cells incubated for 48 hrs; assay type: functional, cell-based; conditions: CT26, 48 h
K562 [3] = test: Antiproliferative activity against human K562 cells incubated for 48 hrs; assay type: functional, cell-based; conditions: K562, 48 h
U-251 = test: Growth inhibition of human U-251 cells assessed as reduction in cell viability; assay type: functional
A498 = test: Growth inhibition of human A498 cells assessed as reduction in cell viability; assay type: functional
NCI-H522 = test: Growth inhibition of human NCI-H522 cells assessed as reduction in cell viability; assay type: functional
HepG2 = test: Antiproliferative activity against human HepG2 cells incubated by 48 hrs by MTT assay; assay type: functional, cell-based; conditions: HepG2, 48 h
B16-F10 = test: Antiproliferative activity against mouse B16-F10 cells; assay type: functional, cell-based
HeLa [4] = test: Antiproliferative activity against human HeLa cells; assay type: functional, cell-based
K562 [5] = test: Antiproliferative activity against human K562 cells incubated by 48 hrs by MTT assay; assay type: functional, cell-based; conditions: K562, 48 h
A549 [6] = test: Antiproliferative activity against human A549 cells incubated by 48 hrs by MTT assay; assay type: functional, cell-based; conditions: A549, 48 h
[7] = Antiproliferative activity against human LX-2 cells; assay type: toxicity, cell-based
PC-3 = test: Antiproliferative activity against human PC-3 cells incubated by 48 hrs by MTT assay; assay type: functional, cell-based; conditions: PC-3, 48 h
Hep 3B2 = test: Anticancer activity against human Hep3B cells measured after 48 hrs; assay type: functional, cell-based
MCF7 [8] = test: Antiproliferative activity against human MCF7 cells assessed as inhibition of cell growth; assay type: functional, cell-based
HeLa [9] = test: Antiproliferative activity against human HeLa cells assessed as inhibition of cell growth; assay type: functional, cell-based
[10] = Cytotoxicity against human HEK293 cells assessed as inhibition of cell growth; assay type: toxicity, cell-based
A549 [11] = test: Antiproliferative activity against human A549 cells assessed as inhibition of cell growth; assay type: functional, cell-based
PANC-1 = test: Antiproliferative activity against human PANC-1 cells; assay type: functional, cell-based
MDA-MB-231 = test: Antiproliferative activity against human MDA-MB-231 cells; assay type: functional, cell-based
[12] = Cytotoxicity activity against human HDF cells; assay type: toxicity, cell-based; conditions: HDF cells (NHDF)
HT-29 = test: Antiproliferative activity against human HT-29 cells; assay type: functional, cell-based
A549 [13] = test: Antiproliferative activity against human A549 cells assessed as inhibition of cell viability; assay type: functional, cell-based
[14] = Antiproliferative activity against human HL7702 cells assessed as inhibition of cell viability; assay type: toxicity, cell-based; conditions: HL7702 (L02) cells
A549/CDDP = test: Antiproliferative activity against human A549/DDP cells assessed as inhibition of cell viability; assay type: functional, cell-based
NCI/ADR-RES [15] = test: Antiproliferative activity against human MCF7ADR cells; assay type: functional, cell-based
MCF7 [16] = test: Antiproliferative activity against human MCF7 cells; assay type: functional, cell-based
A549 [17] = test: Antiproliferative activity against human A549 cells; assay type: functional, cell-based
[18] = Antiproliferative activity against mouse MC3T3-E1 cells; assay type: toxicity, cell-based

**Q.** With `C=C[C@]1(O)c2ccccc2-n2c1nc1ccccc1c2=O` as the molecule, how does the GI50 (DU-145) read?
**A.** 10 µM

**Q.** What about the GI50 (SW-620) of the same molecule?
**A.** 10 µM

**Q.** What about the GI50 (NCI/ADR-RES [1]) of the same molecule?
**A.** 20 µM

**Q.** What about the GI50 (M14) of the same molecule?
**A.** 8 µM

**Q.** What about the GI50 (SK-OV-3) of the same molecule?
**A.** 6 µM

**Q.** With `Cc1ccc2c(c1)[C@@]1(N[C@H](C(=O)NCC(=O)O)[C@]3(c4ccccc4)[C@@H](c4ccccc4)[C@]13c1ccccc1)c1nc3ccccc3c(=O)n1-2` as the molecule, how does the IC50 (HeLa [2]) read?
**A.** > 50 µM

**Q.** And the IC50 (CT26)?
**A.** > 50 µM

**Q.** What about the IC50 (K562 [3]) of the same molecule?
**A.** 10.2 µM

**Q.** With `CCCC[C@]1(O)c2ccccc2-n2c1nc1ccccc1c2=O` as the molecule, how does the GI50 (DU-145) read?
**A.** > 100 µM

**Q.** What about the GI50 (SW-620) of the same molecule?
**A.** > 100 µM

**Q.** And the GI50 (NCI/ADR-RES [1])?
**A.** > 100 µM

**Q.** And the GI50 (M14)?
**A.** > 100 µM

**Q.** What about the GI50 (SK-OV-3) of the same molecule?
**A.** > 100 µM

**Q.** What about the GI50 (U-251) of the same molecule?
**A.** > 100 µM

**Q.** And the GI50 (A498)?
**A.** > 100 µM

**Q.** And the GI50 (NCI-H522)?
**A.** > 100 µM

**Q.** For `O=C1c2cc([N+](=O)[O-])ccc2-n2c1nc1ccccc1c2=O`, which GI50 (DU-145) is on record?
**A.** 0.15 µM

**Q.** And the GI50 (SW-620)?
**A.** 4 µM

**Q.** And the IC50 (HepG2)?
**A.** 7.89 µM

**Q.** What about the GI50 (NCI/ADR-RES [1]) of the same molecule?
**A.** 0.7 µM

**Q.** And the GI50 (M14)?
**A.** 0.8 µM

**Q.** What about the GI50 (SK-OV-3) of the same molecule?
**A.** 5 µM

**Q.** What about the GI50 (U-251) of the same molecule?
**A.** > 100 µM

**Q.** What about the IC50 (B16-F10) of the same molecule?
**A.** 0.49 µM

**Q.** What about the IC50 (HeLa [4]) of the same molecule?
**A.** 0.34 µM

**Q.** And the IC50 (K562 [5])?
**A.** 8.05 µM

**Q.** What about the GI50 (A498) of the same molecule?
**A.** 3 µM

**Q.** And the IC50 (A549 [6])?
**A.** 6.88 µM

**Q.** What about the IC50 [7] of the same molecule?
**A.** 0.83 µM

**Q.** And the IC50 (PC-3)?
**A.** 11.8 µM

**Q.** What about the IC50 (Hep 3B2) of the same molecule?
**A.** 1.4 µM

**Q.** What about the GI50 (NCI-H522) of the same molecule?
**A.** 0.7 µM

**Q.** For `O=C1C2C=CC=CC2=NC2/C(=N\Nc3nc(-c4ccc(Cl)cc4)cs3)c3ccccc3N12` (stereo not drawn), which IC50 (MCF7 [8]) is on record?
**A.** 18.2 µM

**Q.** And the IC50 (HeLa [9])?
**A.** 21.7 µM

**Q.** And the IC50 [10]?
**A.** 80.9 µM

**Q.** What about the IC50 (A549 [11]) of the same molecule?
**A.** 11.1 µM

**Q.** Which IC50 (HepG2) does the source give for `O=C1c2cc(F)c(F)cc2-n2c1nc1ccccc1c2=O` here?
**A.** 9.84 µM

**Q.** What about the IC50 (K562 [5]) of the same molecule?
**A.** 3.31 µM

**Q.** What about the IC50 (A549 [6]) of the same molecule?
**A.** 2.15 µM

**Q.** What about the IC50 (PC-3) of the same molecule?
**A.** 10.4 µM

**Q.** Which results are given for `Cc1nn(Br)c2c1[C@@]1(C(C#N)=C(N)O2)c2ccccc2-n2c1nc1ccccc1c2=O`?
**A.** IC50 (PANC-1): 48.2 µM; IC50 (MDA-MB-231): 52.4 µM; IC50 [12]: > 100 µM; IC50 (HT-29): 79.7 µM

**Q.** What does the source list for `O=C1C2C=CC=CC2=NC2/C(=N\Nc3nc(-c4ccc(Br)cc4)cs3)c3ccccc3N12` (stereo not drawn)?
**A.** IC50 (MCF7 [8]): 12.7 µM; IC50 (HeLa [9]): 19.3 µM; IC50 [10]: 73.3 µM; IC50 (A549 [11]): 16.9 µM

**Q.** For `O=C(CCCCN(Cc1ccccn1)Cc1ccccn1)Nc1ccc2c(c1)C(=O)c1nc3ccccc3c(=O)n1-2`, which IC50 (A549 [13]) is on record?
**A.** 63.7 µM

**Q.** And the IC50 [14]?
**A.** > 100 µM

**Q.** What about the IC50 (A549/CDDP) of the same molecule?
**A.** 52.4 µM

**Q.** Which IC50 (Hep 3B2) does the source give for `O=C1c2cc(Br)ccc2-n2c1nc1ccc(F)cc1c2=O` here?
**A.** 5.8 µM

**Q.** Which IC50 (HepG2) does the source give for `O=C1c2ccccc2-n2c1nc1cccc(F)c1c2=O` here?
**A.** 6.26 µM

**Q.** What about the IC50 (K562 [5]) of the same molecule?
**A.** 6.86 µM

**Q.** What about the IC50 (A549 [6]) of the same molecule?
**A.** 5.45 µM

**Q.** And the IC50 (PC-3)?
**A.** 12.4 µM

**Q.** Which IC50 (NCI/ADR-RES [15]) does the source give for `O=c1c2ccccc2nc2n1-c1ccccc1/C2=N\O` here?
**A.** 75.3 µM

**Q.** And the IC50 (MCF7 [16])?
**A.** 82.1 µM

**Q.** Which results are given for `Cc1nn(Br)c2c1[C@@]1(C(C#N)=CO2)c2cc(-c3cccc(Cl)c3)ccc2-n2c1nc1ccccc1c2=O`?
**A.** IC50 (PANC-1): 96.4 µM; IC50 (MDA-MB-231): 81.3 µM; IC50 [12]: > 100 µM; IC50 (HT-29): 63.8 µM

**Q.** With `O=C1C2C=CC=CC2=NC2/C(=N\Nc3nc(-c4ccc(F)cc4)cs3)c3ccccc3N12` (stereo not drawn) as the molecule, how does the IC50 (MCF7 [8]) read?
**A.** 10.2 µM

**Q.** And the IC50 (HeLa [9])?
**A.** 9.54 µM

**Q.** What about the IC50 [10] of the same molecule?
**A.** 86.1 µM

**Q.** And the IC50 (A549 [11])?
**A.** 6.67 µM

**Q.** Which results are given for `Cc1nn(Br)c2c1[C@@]1(C(C#N)=CO2)c2cc(-c3ccccc3)ccc2-n2c1nc1ccccc1c2=O`?
**A.** IC50 (PANC-1): 85.3 µM; IC50 (MDA-MB-231): 65.4 µM; IC50 [12]: > 100 µM; IC50 (HT-29): > 100 µM

**Q.** What does the source list for `Cc1n[nH]c2c1[C@@]1(C(C#N)=C(N)O2)c2cc(-c3ccccc3)ccc2-n2c1nc1ccccc1c2=O`?
**A.** IC50 (PANC-1): > 100 µM; IC50 (MDA-MB-231): 72.2 µM; IC50 [12]: > 100 µM; IC50 (HT-29): 97.9 µM

**Q.** Which IC50 (Hep 3B2) does the source give for `COc1cccc2c1C(=O)c1c(O)c3c(c(O)c1C2=O)C[C@@](O)(C(=O)CO)C[C@@H]3O[C@H]1C[C@H](N)[C@H](O)[C@H](C)O1` [DOXORUBICIN] here?
**A.** 0.26 µM

**Q.** With `O=C1c2cc(F)ccc2-n2c1nc1ccccc1c2=O` as the molecule, how does the IC50 (HepG2) read?
**A.** 1.97 µM

**Q.** And the IC50 (A549 [17])?
**A.** 10.9 µM

**Q.** And the IC50 [18]?
**A.** 97 µM

**Q.** And the IC50 (K562 [5])?
**A.** 2.66 µM

**Q.** What about the IC50 (A549 [6]) of the same molecule?
**A.** 2.36 µM

**Q.** What about the IC50 (PC-3) of the same molecule?
**A.** 10.6 µM

**Q.** And the IC50 (Hep 3B2)?
**A.** 4.1 µM

**Q.** Which results are given for `COc1cc(/C=C/C(=O)CC(=O)/C=C/c2ccc(O)c(OC)c2)ccc1O` [CURCUMIN]?
**A.** IC50 (A549 [13]): 35.8 µM; IC50 [14]: > 100 µM; IC50 (A549/CDDP): 67.2 µM

**Q.** With `O=C1c2cc3ccccc3cc2-n2c1nc1ccccc1c2=O` as the molecule, how does the GI50 (DU-145) read?
**A.** 50 µM

**Q.** And the GI50 (SW-620)?
**A.** 8 µM

**Q.** And the GI50 (NCI/ADR-RES [1])?
**A.** 15 µM

**Q.** And the GI50 (M14)?
**A.** 40 µM

**Q.** What about the GI50 (SK-OV-3) of the same molecule?
**A.** 30 µM

**Q.** What about the GI50 (U-251) of the same molecule?
**A.** 15 µM

**Q.** What about the GI50 (A498) of the same molecule?
**A.** 60 µM

**Q.** And the GI50 (NCI-H522)?
**A.** 50 µM
